In patent publication US4775758A, “Phospholipids” (Takeda Chemical Industries, Ltd., priority 1983, dated 1988):

Tests used:
sarcoma 180 cells [1] = test: Antitumor activity (simultaneous administration), intraperitoneal sarcoma 180, life span; assay type: in vivo, ICR mice; conditions: for rate of life prolongation against the control group: 1 mg/mouse i.p. after i.p. transplantation of 1×10^5 sarcoma 180 cells, ICR mice
Description: Antitumor activity (simultaneous administration) of 1,3-dioctyloxypropane-2-yl 2-trimethylammonioethyl phosphate (Example 1)
Sarcoma 180 cells (1×10^5 cells per mouse) was transplanted intraperitoneally to ICR mice (a group consisting of 5 mice). Subsequently, the compound of Example 1 (1 mg/mouse) was dissolved in physiological saline, and administered intraperitoneally to each of the mice. In the group given the drug compound, two mice survived 60 days, and the rate of life prolongation against the control group not given the drug compound was 458.

Piricularia oryzae = test: microbe, parasite or virus in culture; assay type: cell-based
sarcoma 180 cells [2] = test: Antitumor activity, subcutaneous sarcoma 180, intravenous administration, tumor weight; assay type: in vivo; conditions: 0.06 mg/mouse i.v., 9 times, 7th to 20th day; tumor weight on 21st day; sarcoma 180 s.c., ICR mice
Description: (§1) Antitumor activity of 1,3-dioctyloxypropane-2-yl 2-trimethylammonioethyl phosphate (Example 1)
(§2) Sarcoma 180 cells (1×10^6 cells) were transplanted subcutaneously to each of ICR mice (a group consisting of 5 mice). The compound of Example 1 was injected intravenously to the mice at the single dose rate of 0.06 mg/mouse 9 times over the period of from the 7th day after the transplantation to the 20th day. On the 21th day, the mice were anatomized, and the weight of tumors was measured.

sarcoma 180 cells [3] = test: Antitumor activity, subcutaneous sarcoma 180, intraperitoneal administration, tumor weight; assay type: in vivo; conditions: 0.2 mg/mouse i.p., 13 times, 2nd to 20th day; tumor weight on 21st day; sarcoma 180 s.c., ICR mice
Description: as §1
as §2, with “administered intraperitoneally” for “injected intravenously”, “0.2” for “0.06”, “13” for “9”, “2nd” for “7th”, “day” for “day after the transplantation”

Saccharomyces cerevisiae = test: Antifungal action, MIC by serial dilution technique; assay type: cell-based; conditions: 1% glucose bouillon agar
Diaporthe citri = test: as above; assay type: cell-based; conditions: 1% glucose bouillon agar
Description: (§3) Antifungal action of 1,3-dioctyloxypropane-2-yl 2-trimethylammonioethyl phosphate (Example 1)
(§4) Using typical fungi, the minimal inhibition concentrations (MIC) were determined with the compound of Example 1 by the serial dilution technique on a 1% glucose bouillon agar culture medium.

Cladosporium herbarum = test: as above; assay type: cell-based; conditions: 1% glucose bouillon agar
Description: as §3, §4

Cercospora beticola = test: as above; assay type: cell-based; conditions: 1% glucose bouillon agar
Description: as §3, §4

Botrytis cinerea = test: as above; assay type: cell-based; conditions: 1% glucose bouillon agar
Description: as §3, §4

Elsinoe fawcetti = test: as above; assay type: cell-based; conditions: 1% glucose bouillon agar
Description: as §3, §4

sarcoma 180 cells [4] = test: Antitumor activity (pre-administration), intraperitoneal sarcoma 180, life span; assay type: in vivo; conditions: 1 mg/mouse i.p., 4 days before i.p. transplantation of 1×10^5 sarcoma 180 cells; ICR mice
Description: Antitumor activity (pre-administration) of 1,3-dioctyloxypropane-2-yl 2-trimethylammonioethyl phosphate (Example 1)
A 1 mg/mouse of the compound of Example 1 was admixed with physiological saline, and administered intraperitoneally to ICR mice (a group consisting of 5 mice). Four days later, 1×10^5 sarcoma 180 cells per mouse was transplanted intraperitoneally to each of the mice.

Mucor spinescens = test: Antifungal action, MIC by serial dilution technique; assay type: cell-based; conditions: 1% glucose bouillon agar
Helminthosporium oryzae = test: as above; assay type: cell-based; conditions: Bipolaris oryzae
Penicilium citrinum = test: as above; assay type: cell-based; conditions: 1% glucose bouillon agar
P 388 leukemia cells = test: Antitumor activity, P 388 leukemia cells mixed with compound and transplanted subcutaneously, tumor weight; assay type: in vivo; conditions: 1×10^6 P 388 cells mixed with 0.1 g of compound, s.c., CDF1 mice; tumor weight on 10th day
Excerpt: Antitumor activity of 1,3-dioctyloxypropane-2-yl 2-thiazolioethyl phosphate (Example 3)
P 388 leukemia cells (1×10^6 cells) were mixed with 0.1 g of the compound of Example 3, and transplanted subcutaneously to each of CDF1 mice (a group consisting of 5 mice).

MM46 cells = test: Antitumor activity, intraperitoneal MM46, administration before and after inoculation, survival; assay type: in vivo; conditions: 5 animals per group; 0.25 mg/mouse i.p., 4 days before and 4 days after 1×10^4 MM46 cells i.p.; C3H/He mice; controls all died within 19 days
Description: Antitumor activity of the compound of Example 9
The compound of Example 9 was intraperitoneally administered to C3H/He mice (5 animals per group) in a dose of 0.25 mg/mouse for 4 consecutive days.
On the 5th day, 1×10^4 MM46 cells were intraperitoneally inoculated into each mouse, and the compound of Example 9 was again administered intraperitoneally to the mice in a dose of 0.25 mg/mouse for 4 days starting from day 1 after inoculation.
The mice in the control group all died within 19 days after tumor implantation, whereas, in the drug-treated group, 3 animals survived on day 60.

Meth A cells = test: Antitumor activity, subcutaneous Meth A, administration on the transplanted portion, tumor weight; assay type: in vivo; conditions: 0.25 mg/mouse on the transplanted portion once a day for 4 days; Meth A s.c., CDF1 mice; ten days later
Description: Antitumor activity of 1,3-dinonyloxypropane-2-yl 2-trimethylammonioethyl phosphate (Example 9)
Meth A cells (1×10^6 cells per mouse) were transplanted subcutaneously to CDF1 mice (a group consisting of 5 mice). On the other hand, a solution of 0.25 mg/mouse of the compound of Example 9 in 0.05 ml of physilogical saline was given to each of the mice on the portion transplanted with the cells once a day for 4 consecutive days from the 1st day following the transplantation. Ten days later, the tumor tissues were removed, and the weight of tumors was measured.

sarcoma 180 cells [5] = test: Antitumor activity, intraperitoneal sarcoma 180, three administrations, life span; assay type: in vivo, ICR mice
Excerpt: ICR mice (5 animals per group) were intraperitoneally inoculated with 1×10^5 sarcoma 180 cells per mouse. […] The life span prolonging ratio as compared with the control (no drug treatment) group was 198, and 1 animal survived on day 60.

sarcoma 180 cells [6] = test: Antitumor activity, intraperitoneal sarcoma 180, 9 consecutive days, life span; assay type: in vivo; conditions: 25 mg/kg i.p., 4×10^5 sarcoma 180 cells i.p., ICR mice
Description: Antitumor activity of 1,3-diheptyloxypropane-2-yl 2-trimethylammonioethyl phosphate (Example 10)
Sarcoma 180 cells (4×10^5 cells per mouse) were transplanted intraperitoneally to ICR mice (a group consisting of 5 mice). The compound of Example 10 was administered intraperitoneally to the mice at the single dose rate of 25 mg/kg for 9 consecutive days from the day following transplantation.

[7] = rat, in vivo, iv
Description: Male 7-week aged Sprague-Dawley rats (weighing 200 to 290 g) were anesthetized by intraperitoneal administration of 60 mg/kg of pentobarbital sodium, and the left carotids (for the measurement of blood pressure) and left femoral veins (for the intravenous administration) were cannulated.

platelet = conditions: Biochemical and Biophysical Research Communications, 99, 183 (1981); cited from earlier work

In the case of `CCCCCCCCOCC(COP(=O)([O-])OCC[N+](C)(C)C)OCCCCCCCC` (stereo not drawn) [2,3-dioctyloxypropyl 2-trimethylammonioethyl phosphate, reference compound], the “rate of life prolongation against the control group” value (sarcoma 180 cells [1]) is reported as 195.

For `CCCCCCCCOCC(COCCCCCCCC)OP(=O)([O-])OCC[N+](C)(C)C` [Example 1, 1,3-Dioctyloxypropane-2-yl 2-trimethylammonioethyl phosphate], the MIC (Piricularia oryzae) was 6.25 µg/mL, the “growth inhibition rate of tumor” value (sarcoma 180 cells [2]) was 52% and the “growth inhibition rate of tumor” value (sarcoma 180 cells [3]) was 54%. The MIC (Saccharomyces cerevisiae) was 25 µg/mL, the MIC (Diaporthe citri) was 6.25 µg/mL and the MIC (Cladosporium herbarum) was 6.25 µg/mL. The MIC (Cercospora beticola) was 6.25 µg/mL, the MIC (Botrytis cinerea) was 3.12 µg/mL and the MIC (Elsinoe fawcetti) was 3.12 µg/mL. The “rate of life prolongation against the control group” value (sarcoma 180 cells [1]) was 458, the “mice survived 60 days” value (sarcoma 180 cells [1]; group of 5 mice, 1 mg/mouse i.p., sarcoma 180 i.p.) was “two” and the “rate of life span prolongation against the control group (T/C)” value (sarcoma 180 cells [4]) was 225. The MIC (Mucor spinescens) was 12.5 µg/mL, the MIC (Helminthosporium oryzae) was 3.12 µg/mL and the MIC (Penicilium citrinum) was 12.5 µg/mL.

For `CCCCCCCCOCC(COCCCCCCCC)OP(=O)([O-])OCC[n+]1ccsc1` [Example 3, 1,3-Dioctyloxypropane-2-yl 2-thiazolioethyl phosphate], the “growth inhibition rate of tumor” value (P 388 leukemia cells) was 83%.

In the case of `CCCCCCCCCOCC(COCCCCCCCCC)OP(=O)([O-])OCC[N+](C)(C)C` [Example 9, 1,3-Dinonyloxypropane-2-yl 2-trimethylammonioethyl phosphate], the “animals survived on day 60” value (MM46 cells) is reported as 3 animals, the “growth inhibition rate of tumor” value (Meth A cells) is reported as 76% and the “life span prolonging ratio as compared with the control” value (sarcoma 180 cells [5]; 0.33 mg/mouse three times (hour 1, day 1, day 2), 1×10^5 sarcoma 180 cells i.p., ICR mice) is reported as 198. For the same compound, the “animal survived on day 60” value (sarcoma 180 cells [5]; 5 animals per group, 0.33 mg/mouse three times, sarcoma 180 i.p.) was 1 animal.

In the case of `CCCCCCCOCC(COCCCCCCC)OP(=O)([O-])OCC[N+](C)(C)C` [Example 10, 1,3-Diheptyloxypropane-2-yl 2-trimethylammonioethyl phosphate], the “rate of life span prolongation against the control group (T/C)” value (sarcoma 180 cells [6]) is reported as 295.

For `CCCCCCCCCCCCCCCCCCOCC(COP(=O)([O-])OCC[N+](C)(C)C)OC` (stereo not drawn) [compound (XI)], the “blood pressure lowering action (in words)” value [7] is listed as “possesses blood-pressure lowering action” and the platelet aggregating action (platelet) is listed as “has platelet aggregating action”.
